Source: patent publication EP2385818B1, “DIOLS AS ANTIPERSPIRANT AGENTS” (Beiersdorf Aktiengesellschaft, priority 2009, dated 2010)

System: schweißabgebenden Schweißdrüsen im Testareal
Experiment: Sweat reduction on the forearm of volunteers, sweating induced at 75 °C, silicone imprint count of active sweat glands versus untreated area (following Keskin et al.)
Assay type: in vivo, Probanden
Details: for antitranspirant bzw. schweißhemmende Wirkung (Restschweißmenge im Vergleich zum unbehandelten Areal): forearm, after product application, result in words only; for AT-Wirkung, onset: measurable after the first application, no build-up by repeated application
Excerpt: Die überraschende Antitranspirantwirksamkeit wurde in Studien zum AT-Wirkmechanismus der aromatischen Diole in wässrigen Systemen, unterschiedlichen Ölen und O/W-Emulsion untersucht (siehe Abbildung 1). In den Abbildungen ist die Restschweißmenge im Vergleich zum unbehandelten Areal nach Produktapplikation dargestellt. 100% Restschweißmenge entsprechen 0% Schweißreduktion. Die Schweißreduktion wurde in Anlehnung an M. Keskin et al. J. Invest. Dermatol. 1998; 110:591 gemessen. Bei den Messungen werden die Testsubstanzen auf dem Unterarm der Probanden angewendet. Die Probanden werden bei 75 °C zum Schwitzen angeregt; nach Beginn der Schweißproduktion wird mittels Silikonabdrucktechnik die Anzahl der schweißabgebenden Schweißdrüsen im Testareal ermittelt und gegen ein unbehandeltes Vergleichsareal abgeglichen.

| Compound | antitranspirant bzw. schweißhemmende Wirkung (Restschweißmenge im Vergleich zum unbehandelten Areal) | AT-Wirkung, onset | AT-Leistung (preparation with up to 50 % Gew. in water, compared with preparation with 10 Gew.% Aluminiumchlorohydrat (Abbildung 1)) |
| --- | --- | --- | --- |
| CC(O)CC(C)O (centres unmarked) [2,4-Pentylenglykol] | antitranspirant bzw. schweißhemmende Wirkung | unmittelbare AT-Wirkung (Sofort-Effekt) | – |
| OCCCO [1,3-Propylenglykol] | antitranspirant bzw. schweißhemmende Wirkung | unmittelbare AT-Wirkung (Sofort-Effekt) | gute AT-Leistung |
| OCCC(O)c1ccccc1 (centres unmarked) [Phenyl-1,3-Propylenglykol] | schweißhemmende Wirkung | – | – |
| CC(O)C(O)c1ccccc1 (centres unmarked) | schweißhemmende Wirkung | – | – |
| CC(O)CCO (centres unmarked) [1,3-Butylenglykol] | antitranspirant bzw. schweißhemmende Wirkung | unmittelbare AT-Wirkung (Sofort-Effekt) | – |
| CC(O)CCC(C)O (centres unmarked) [2,5 Hexandiol, 2,5-Hexandiol] | antitranspirant bzw. schweißhemmende Wirkung | unmittelbare AT-Wirkung (Sofort-Effekt) | – |
